Target: T1, FL hMALT1 enzyme (Homo sapiens, UniProt Q9UDY8);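 note: Cell-free protease assay: enzyme preincubated with compound 30 min at room temperature, then cleavage of fluorogenic Ac-LVSR-AMC substrate (100 µM) tracked by fluorescence (ex 360/em 460 nm)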
T1 sequence (Q9UDY8 1-824): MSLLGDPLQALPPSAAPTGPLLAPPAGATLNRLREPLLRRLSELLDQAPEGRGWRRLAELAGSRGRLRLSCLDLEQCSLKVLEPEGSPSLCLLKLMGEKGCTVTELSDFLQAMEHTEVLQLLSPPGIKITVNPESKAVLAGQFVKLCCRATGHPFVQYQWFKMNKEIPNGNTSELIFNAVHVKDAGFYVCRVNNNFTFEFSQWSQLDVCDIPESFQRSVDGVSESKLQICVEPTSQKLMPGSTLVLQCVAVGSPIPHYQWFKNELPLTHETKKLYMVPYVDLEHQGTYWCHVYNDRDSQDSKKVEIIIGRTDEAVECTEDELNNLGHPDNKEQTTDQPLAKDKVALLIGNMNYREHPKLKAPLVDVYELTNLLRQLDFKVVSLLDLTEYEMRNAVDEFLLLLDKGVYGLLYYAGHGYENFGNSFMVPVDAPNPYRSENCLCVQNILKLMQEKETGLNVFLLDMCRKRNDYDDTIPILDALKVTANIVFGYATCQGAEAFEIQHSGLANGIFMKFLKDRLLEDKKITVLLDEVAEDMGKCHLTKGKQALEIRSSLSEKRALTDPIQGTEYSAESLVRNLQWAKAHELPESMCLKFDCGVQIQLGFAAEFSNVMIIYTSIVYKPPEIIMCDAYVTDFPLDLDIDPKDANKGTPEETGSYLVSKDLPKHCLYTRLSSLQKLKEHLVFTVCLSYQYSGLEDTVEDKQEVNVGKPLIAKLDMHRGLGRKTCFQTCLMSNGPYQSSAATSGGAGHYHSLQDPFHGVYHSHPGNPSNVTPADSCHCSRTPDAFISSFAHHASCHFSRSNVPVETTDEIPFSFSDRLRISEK
Assay: biochemical
Settings: not given

Row | Structure (SMILES) | IC50 [nM]
1 | CN(C(=O)C1CCS(=O)(=O)CC1)[C@@H](c1ccc(NC2Cc3cccc(C(F)(F)F)c3C2)nc1)C(F)(F)F (single isomer, unassigned) [Example 281] | 14
2 | CN(C(=O)C1CCS(=O)(=O)CC1)[C@@H](c1ccc(NC2Cc3ccc(Br)cc3C2)cn1)C(F)(F)F (single isomer, unassigned) [Example 284] | 85
3 | CN(C(=O)C1CCS(=O)(=O)CC1)[C@@H](c1ccc(NC2Cc3ccc(Cl)cc3C2)nc1)C(F)(F)F (single isomer, unassigned) [Example 289] | 45
4 | CN(C(=O)C1CCNC(=O)C1)[C@@H](c1ccc(N[C@H]2Cc3ccc(Cl)cc3C2)cn1)C(F)(F)F (single isomer, unassigned) [Example 314] | 150
5 | CN(C(=O)[C@@H]1CNC(=O)C1)[C@@H](c1ccc(NC2Cc3ccc(Cl)c(F)c3C2)cn1)C(F)(F)F (single isomer, unassigned) [Example 317] | 72
6 | CN(C(=O)[C@@H]1CNC(=O)C1)[C@@H](c1ccc(NC2Cc3ccc(Cl)c(Cl)c3C2)cn1)C(F)(F)F (single isomer, unassigned) [Example 319] | 24
7 | CN(C(=O)[C@H]1CCC(=O)NC1)[C@@H](c1ccc(NC2Cc3ccc(Cl)c(Cl)c3C2)cn1)C(F)(F)F (single isomer, unassigned) [Example 321] | 25
8 | CN(C(=O)C12CC(NS(C)(=O)=O)(C1)C2)[C@@H](c1ccc(NC2Cc3ccc(Cl)c(Cl)c3C2)cn1)C(F)(F)F (single isomer, unassigned) [Example 323] | 14

Other lines, results leading:

Row | IC50 [nM] | Structure (SMILES)
9 | 82 | CN(C(=O)C1CCS(=O)(=O)CC1)[C@@H](c1ccc(NC2Cc3ccc(F)c(F)c3C2)cn1)C(F)(F)F (single isomer, unassigned) [Example 261]
10 | 2680 | CN(C(=O)C1CCS(=O)(=O)CC1)[C@@H](c1ccc(NC2Cc3ccc(F)c(F)c3C2)cn1)C(F)(F)F (single isomer, unassigned) [Example 262]
11 | 61 | CN(C(=O)C1CCS(=O)(=O)CC1)[C@@H](c1ccc(NC2Cc3cccc(Cl)c3C2)cn1)C(F)(F)F (single isomer, unassigned) [Example 263]
12 | 32 | CN(C(=O)C1CCS(=O)(=O)CC1)[C@@H](c1ccc(NC2Cc3ccc(F)c(Cl)c3C2)cn1)C(F)(F)F (single isomer, unassigned) [Example 265]
13 | 81 | CN(C(=O)C1CCS(=O)(=O)CC1)[C@@H](c1ccc(NC2Cc3cc(Cl)cc(F)c3C2)cn1)C(F)(F)F (single isomer, unassigned) [Example 270]
14 | 43 | CN(C(=O)C1CCS(=O)(=O)CC1)[C@@H](c1ccc(NC2Cc3ccc(Cl)c(F)c3C2)cn1)C(F)(F)F (single isomer, unassigned) [Example 277]
15 | 15 | CN(C(=O)C1CCS(=O)(=O)CC1)[C@@H](c1ccc(NC2Cc3ccc(Cl)c(Cl)c3C2)cn1)C(F)(F)F (single isomer, unassigned) [Example 279]
16 | 55 | CN(C(=O)C1CCS(=O)(=O)CC1)[C@@H](c1ccc(NC2Cc3c(F)ccc(Cl)c3C2)cn1)C(F)(F)F (single isomer, unassigned) [Example 293]
17 | 9 | CN(C(=O)C1CCS(=O)(=O)CC1)[C@@H](c1ccc(NC2Cc3ccc(Cl)c(C4CC4)c3C2)cn1)C(F)(F)F (single isomer, unassigned) [Example 306]
18 | 15 | CN(C(=O)C1CCS(=O)(=O)CC1)[C@@H](c1ccc(NC2Cc3ccc(Cl)c(C(F)(F)F)c3C2)cn1)C(F)(F)F (single isomer, unassigned) [Example 312]

Tested on: IL-2 release from stimulated Jurkat cells
Assay: Human IL-2 Release Phenotypic Assay (Assay 3)
Format: cell-based
Settings: Homo sapiens, Jurkat, 48 h, Jurkat cells (clone E6-1), 200 ng/mL PMA + 300 ng/mL ionomycin, IL-2 by ELISA
Summary of the method: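 IC50 values were fitted by 4-parameter non-linear regression to IL-2 release from Jurkat E6-1 cells. Those cells were stimulated for 48 h with PMA (200 ng/mL) plus ionomycin (300 ng/mL) after a 30-min compound pre-incubation at half-log doses in 0.5% DMSO. Cells had been plated at 50 000/well overnight at 37° C.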

Row | Structure (SMILES) | IC50 [nM]
19 | CN(C(=O)C1CCS(=O)(=O)CC1)[C@@H](c1ccc(NC2Cc3cccc(C(F)(F)F)c3C2)nc1)C(F)(F)F (single isomer, unassigned) [Example 281] | 460
20 | CN(C(=O)C1CCS(=O)(=O)CC1)[C@@H](c1ccc(NC2Cc3ccc(Br)cc3C2)cn1)C(F)(F)F (single isomer, unassigned) [Example 284] | 490
21 | CN(C(=O)C1CCS(=O)(=O)CC1)[C@@H](c1ccc(NC2Cc3ccc(Cl)cc3C2)nc1)C(F)(F)F (single isomer, unassigned) [Example 289] | 300
22 | CN(C(=O)C1CCNC(=O)C1)[C@@H](c1ccc(N[C@H]2Cc3ccc(Cl)cc3C2)cn1)C(F)(F)F (single isomer, unassigned) [Example 314] | 380
23 | CN(C(=O)[C@@H]1CNC(=O)C1)[C@@H](c1ccc(NC2Cc3ccc(Cl)c(F)c3C2)cn1)C(F)(F)F (single isomer, unassigned) [Example 317] | 113
24 | CN(C(=O)[C@@H]1CNC(=O)C1)[C@@H](c1ccc(NC2Cc3ccc(Cl)c(Cl)c3C2)cn1)C(F)(F)F (single isomer, unassigned) [Example 319] | 66
25 | CN(C(=O)[C@H]1CCC(=O)NC1)[C@@H](c1ccc(NC2Cc3ccc(Cl)c(Cl)c3C2)cn1)C(F)(F)F (single isomer, unassigned) [Example 321] | 86
26 | CN(C(=O)C12CC(NS(C)(=O)=O)(C1)C2)[C@@H](c1ccc(NC2Cc3ccc(Cl)c(Cl)c3C2)cn1)C(F)(F)F (single isomer, unassigned) [Example 323] | 100

Other lines, results leading:

Row | IC50 [nM] | Structure (SMILES)
27 | 510 | CN(C(=O)C1CCS(=O)(=O)CC1)[C@@H](c1ccc(NC2Cc3cccc(Cl)c3C2)cn1)C(F)(F)F (single isomer, unassigned) [Example 263]
28 | 220 | CN(C(=O)C1CCS(=O)(=O)CC1)[C@@H](c1ccc(NC2Cc3ccc(F)c(Cl)c3C2)cn1)C(F)(F)F (single isomer, unassigned) [Example 265]
29 | 270 | CN(C(=O)C1CCS(=O)(=O)CC1)[C@@H](c1ccc(NC2Cc3cc(Cl)cc(F)c3C2)cn1)C(F)(F)F (single isomer, unassigned) [Example 270]
30 | 200 | CN(C(=O)C1CCS(=O)(=O)CC1)[C@@H](c1ccc(NC2Cc3ccc(Cl)c(F)c3C2)cn1)C(F)(F)F (single isomer, unassigned) [Example 277]
31 | 96 | CN(C(=O)C1CCS(=O)(=O)CC1)[C@@H](c1ccc(NC2Cc3ccc(Cl)c(Cl)c3C2)cn1)C(F)(F)F (single isomer, unassigned) [Example 279]
32 | 460 | CN(C(=O)C1CCS(=O)(=O)CC1)[C@@H](c1ccc(NC2Cc3c(F)ccc(Cl)c3C2)cn1)C(F)(F)F (single isomer, unassigned) [Example 293]
33 | 200 | CN(C(=O)C1CCS(=O)(=O)CC1)[C@@H](c1ccc(NC2Cc3ccc(Cl)c(C4CC4)c3C2)cn1)C(F)(F)F (single isomer, unassigned) [Example 306]
34 | 350 | CN(C(=O)C1CCS(=O)(=O)CC1)[C@@H](c1ccc(NC2Cc3ccc(Cl)c(C(F)(F)F)c3C2)cn1)C(F)(F)F (single isomer, unassigned) [Example 312]

Same assay, conditions: Jurkat cells (clone E6-1), 200 ng/mL PMA + 300 ng/mL ionomycin, 48 hours, IL-2 by ELISA

Row | IC50 [nM] | Structure (SMILES)
35 | 1410 | CN(C(=O)C1CCS(=O)(=O)CC1)[C@@H](c1ccc(NC2Cc3ccc(F)c(F)c3C2)cn1)C(F)(F)F (single isomer, unassigned) [Example 261]
36 | 7700 | CN(C(=O)C1CCS(=O)(=O)CC1)[C@@H](c1ccc(NC2Cc3ccc(F)c(F)c3C2)cn1)C(F)(F)F (single isomer, unassigned) [Example 262]
